Data set [1] has as its system satellite cells derived from mouse gastrocnemius and soleus muscles. Briefly: Satellite cell proliferation in secondary satellite cell cultures (cell count per ocular grid). In kind it is cell-based. The note with it: genistein added to culture medium as in Example 1, on day 1 or day 2; control 0.05% DMSO; P<0.0001 one day after, P<0.00001 at days 2-5 after addition; FIG. 2. An excerpt:
Method: To analyze satellite cell proliferation secondary satellite cell cultures derived from mouse gastrocnemius and soleus muscles prepared as in Example 1 were fed fresh medium every day. This generally accepted procedure prolongs proliferation and inhibits differentiation and fusion. Two experimental groups were formed by adding genistein to the culture medium, as in Example 1. […] Living cultures were placed on the stage of a phase-contrast microscope and the number of cells contained within an ocular grid was counted at 100× to 200× total magnification. This cell-counting procedure was performed daily through the sixth day of culture.

For data set [2], the system named is mouse primary satellite cells. Briefly: Fusion of mouse primary satellite cells to myofibers in culture (fusion index). In kind it is cell-based. The settings on record: genistein in culture medium, added on first, second or third day of culture; control 0.05% DMSO; day 3 P<0.002, day 5 P<0.0001 (Student's t-test); FIG. 1. On the procedure: Method: Thigh muscle tissue was removed from post-natal day 20-30 mouse pups and the tissue reduced to single cells by a method based largely on a protocol by DiMario and Strohman (DiMario, J. and Strohman, R. C.; 1988). Gastrocnemius and soleus muscles were dissected free of surrounding tissue and finely minced with scissors. The minced tissue was mixed with 0.10% crude collagenase and incubated at 37° C. for 30 minutes with occasional trituration through the bore of a 5 ml glass pipette to break up tissue pieces. The collagenase-tissue slurry was centrifuged briefly to pellet the tissue pieces, muscle fibers, and cells. […] The number of cells was determined and aliquots were appropriately diluted with culture medium so that a known number of satellite cells (80,000) could be added to additional 35 mm collagen-coated dishes for analysis of cell proliferation and fusion. […]
Fusion of satellite cells to form muscle fibers is generally accomplished by removing the source of growth factors in the culture medium. […] As fusion of satellite cells to form myofibers began, the number of nuclei contained within mononucleated cells, primarily satellite cells, and those within myofibers were counted differentially at a magnification of 200×. […]

The conditions of data set [3]: populations of Southeast Asians consuming 70 mg/day of genistein; cited from earlier work.

The values below come from patent publication US20030181510A1, “Inhibition of muscle regeneration following myectomy” (priority 2002, published 2003).

In the case of `O=c1c(-c2ccc(O)cc2)coc2cc(O)cc(O)c12` [genistein, 5,7-dihydroxy-3-(4-hydroxyphenyl)-4H-1-benzopyran-4-one], the “division of satellite cells (number of cells per reticle-grid vs control cultures)” value in data set [1] is recorded as “eliminated the division of satellite cells”. The “fusion of satellite cells (fusion index vs control cultures)” value in data set [2] is “inhibited the fusion of satellite cells”. Moreover, the “ill effects on dietary consumption” value in data set [3] is “without obvious ill effects”.
